Data from patent US8602215B2, “Methods for reducing the risk of an adverse dronedarone/beta-blockers interaction in a patient suffering from atrial fibrillation” (Sanofi, priority 2010, dated 2013).
Counter-ions that a name gives are not always drawn. Like-named read-outs stand apart in the source and are kept apart here.

Assays:
[1] = human, in vivo
[2] = system: patients with atrial fibrillation or atrial flutter; assay: ATHENA clinical study, patients with beta-blockers baseline medication; format: in vivo
Method: The relative risk (RR) was estimated using Cox's […] regression model.
The relative risk (RR) is the ratio of the rates of occurrence of a hospitalization or of a death among the patients on dronedarone, relative to the patients on placebo.
The percentage reduction x of a given event (hospitalization, death, cardiovascular death, etc.) is calculated in the following way: x=1−relative risk. Results Relating to the Prevention of Cardiovascular Hospitalization or Death

[3] = system: healthy male caucasian subjects; assay: Metoprolol/dronedarone interaction study: pharmacodynamics, myocardial contractility (Example 1); format: in vivo, human (healthy male caucasian subjects); settings: dronedarone 800 mg BID added on top of metoprolol 200 mg OD; p=0.0002
Method: (§1) All treatments were administered in fed conditions.
The pharmacodynamic analyses were based on the change in Day 5 and Day 13 measurements, using a one-way analysis of variance (ANOVA) model with term for dose, for both primary and secondary endpoints; estimates and 95% confidence intervals (CI) of the difference in mean CHGDay13-5 between dronedarone dose groups and the placebo group were derived within the ANOVA framework. As the sample size calculation was based on the comparison of the highest dronedarone dose versus placebo, pairwise comparison were performed without adjustment of the overall treatment first type error rate. Safety evaluation was based upon a review of individual values and descriptive statistics (listings, summary tables, graphics).

CYP2D6 = target: T1, CYP2D6 (Homo sapiens, UniProt P10635); assay: CYP2D6 inhibition in vivo, from metoprolol interaction (Example 1); parameters: species or system human (CYP2D6 extensive metabolizer subjects); settings: dronedarone 400 mg BID, metoprolol 200 mg OD as substrate
T1 construct: endogenous in cells; host or cells: healthy human volunteers in vivo (endogenous enzyme, CYP2D6 extensive metabolizers)
T1 sequence (P10635 whole entry): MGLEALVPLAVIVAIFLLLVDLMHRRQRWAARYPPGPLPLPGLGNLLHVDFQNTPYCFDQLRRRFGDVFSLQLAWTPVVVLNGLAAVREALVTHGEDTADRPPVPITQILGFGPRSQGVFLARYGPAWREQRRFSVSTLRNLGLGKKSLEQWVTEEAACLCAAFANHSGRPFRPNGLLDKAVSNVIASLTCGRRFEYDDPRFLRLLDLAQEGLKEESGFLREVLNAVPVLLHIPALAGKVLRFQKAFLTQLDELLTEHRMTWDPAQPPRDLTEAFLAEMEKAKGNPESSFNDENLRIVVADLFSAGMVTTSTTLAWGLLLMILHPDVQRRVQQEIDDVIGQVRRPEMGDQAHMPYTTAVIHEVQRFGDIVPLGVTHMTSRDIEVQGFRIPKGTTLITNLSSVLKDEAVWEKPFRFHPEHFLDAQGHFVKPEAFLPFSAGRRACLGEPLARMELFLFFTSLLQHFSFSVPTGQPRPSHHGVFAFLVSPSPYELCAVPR
Method: as §1
The interaction ratio is lower than the existing 3-(Cmax) to 6-fold (AUC) difference in metoprolol exposure between poor and extensive CYP2D6 metabolizers.

[4] = Metoprolol/dronedarone interaction study: plasma pharmacokinetics of metoprolol (Example 1); settings: dronedarone 400 mg BID + metoprolol 200 mg OD; CYP2D6 extensive metabolizer subjects
clinical = settings: male, human, in vivo
healthy male subjects = assay: Propranolol/dronedarone interaction study: pharmacodynamics, electrocardiogram and vital signs at rest and during sub-maximal exercise (Example 2); format: in vivo, human (healthy male subjects)
Method: as §1
Pharmacodynamics: Resting vital signs were summarized by the synthetic parameter AUC0-8 and analyzed for “treatment effects and chronological (“time”) effects using repeated measures analysis of variance. Exercise vital signs were analyzed in a similar manner; the electrocardiogram exercise data were not formally analyzed and presented using descriptive statistics.

[5] = existing difference, quoted for comparison; cited from earlier work
[6] = human, in vivo; remark: listed apart in the source
[7] = 1628 patients with beta-blockers baseline medication, placebo 673 of 1641
[8] = versus placebo, Cox model, beta-blockers baseline medication
[9] = versus placebo, beta-blockers baseline medication

With `CCCCNCCCOc1ccc(C(=O)c2c(CCCC)oc3ccc(NS(C)(=O)=O)cc23)cc1` [SR35021] the AUC0-24 [1] was 768.6 (278.4) ng · h/ml, the Cmax [1] was 85.9 (28.8) ng/ml and the tmax [1] was 5.13 (0.72) h.
For `CCCCc1oc2ccc(NS(C)(=O)=O)cc2c1C(=O)c1ccc(OCCCN(CCCC)CCCC)cc1` [dronedarone hydrochloride], the “death due to stroke, events reported” value ([2]; 1628 patients with beta-blockers baseline medication, placebo 11 of 1641) was 10 events, the “sudden cardiac death, events reported” value ([2]; 1628 patients with beta-blockers baseline medication, placebo 25 of 1641) was 9 events and the “hospitalization for congestive heart failure (CHF), events reported” value ([2]; 1628 patients with beta-blockers baseline medication, placebo 96 of 1641) was 85 events. For the same compound, the “cardiovascular hospitalization or death, events reported” value [2, 7] was 553 events, the “death, events reported” value [2, 7] was 553 events and the “relative risk of cardiovascular hospitalization or death” value [2, 8] was 0.777. The “relative risk of death” value [2, 8] was 0.777, the “relative risk of death due to stroke” value [2, 8] was 0.909 and the “relative risk of hospitalization for CHF” value [2, 8] was 0.888. For the same compound, the “relative risk of sudden cardiac death” value [2, 8] was 0.362, the “decrease of CHF” value [2, 9] was 12% and the “decrease of cardiovascular hospitalization or death” value [2, 9] was 23%. The decrease of death [2, 9] was 23%, the “decrease of death due to stroke” value [2, 9] was 10% and the “decrease of sudden cardiac death” value [2, 9] was 64%.
With `CCCCc1oc2ccc(NS(C)(=O)=O)cc2c1C(=O)c1ccc(OCCCN(CCCC)CCCC)cc1` [dronedarone, 2-n-Butyl-3-[4-(3-di-n-butylaminopropoxy)benzoyl]-5-methylsulphonamidobenzofuran] the “reduction in Vcfmean (myocardial contractility)” value [3] was -0.28 s⁻¹, the “inhibition of CYP2D6 in vivo” value (CYP2D6) was “weak inhibitor” and the “effect on alpha hydroxymetoprolol exposures” value [4] was “without significant effect”. For the same compound, the “increase of steady-state propranolol (80 mg OD) exposure” value ([1]; male, 7 days) was 1.2-1.3 fold, the AUC(0-t) (clinical; AUC0-24) was 983 ng·h/mL and the Cmax (clinical; Cmax) was 140 ng/mL. For the same compound, the tmax (clinical; tmax) was 3.63 h, the “Resting diastolic blood pressure, change” value (healthy male subjects; single dose) was −3% and the “Resting heart rate, change” value (healthy male subjects; single dose) was 2%. The “Resting systolic blood pressure, change” value (healthy male subjects; single dose) was −5%, the “diastolic blood pressure during sub-maximal exercise, change from baseline” value (healthy male subjects; single dose) was −2% and the “heart rate during sub-maximal exercise, change from baseline” value (healthy male subjects; single dose) was −3%. For the same compound, the “systolic blood pressure during sub-maximal exercise, change from baseline” value (healthy male subjects; single dose) was −2%, the “PQ interval, change from baseline” value (healthy male subjects; single oral administration) was “increase” and the “T-wave amplitude, change from baseline” value (healthy male subjects; single oral administration) was “increase”. The risk of bradycardia ([2]; patients using both dronedarone and beta-blockers except sotalol) was “no clinically significant increase”.
In the case of `COCCc1ccc(OCC(O)CNC(C)C)cc1` (stereo not shown) [metoprolol], the “difference in metoprolol exposure (AUC) between poor and extensive CYP2D6 metabolizers” value [5] is given as 6 fold, the “difference in metoprolol exposure (Cmax) between poor and extensive CYP2D6 metabolizers” value [5] is given as 3 fold and the “metoprolol Cmax and AUC0-24h after 8 days of treatment” value [6] is given as “significantly higher”. For the same compound, the AUC0-24 ([6]; male) was 1541 (1563) ng · h/mL, the “AUC0-24 ratio estimate (day 13/day 5) and 90% CI” value ([6]; male) was 1.29 [1.08-1.55] and the Cmax ([6]; male) was 100.6 (86.4) ng/mL. The “Cmax ratio estimate (day 13/day 5) and 90% CI” value ([6]; male) was 1.34 [1.08-1.66], the “increase in AUC0-24” value ([6]; male) was 1.6 fold and the “increase in Cmax” value ([6]; male) was 1.8 fold. The tmax ([6]; male) was 4.0 h.
For `CC(C)NCC(O)COc1cccc2ccccc12` (stereo not shown) [propranolol], the AUC0-12 [1] was 318.75 (178.62) ng · h/ml, the AUClast [1] was 360.85 (210.30) ng · h/ml and the Cmax [1] was 59.79 (33.77) ng/ml. For the same compound, the tmax [1] was 2.19 (0.66) h, the “magnitude of the PR prolongation” value (healthy male subjects; after repeated administration, p<0.001) was 3.9% and the “magnitude of the T-wave increase” value (healthy male subjects; after repeated administration, p=0.001) was 28.3%. The “reduction of HR” value (healthy male subjects; at steady state) was −8.9%, the “mean change from baseline in QT” value (healthy male subjects; based on AUC0-8 h, at steady state) was 3.6% and the “mean change from baseline in QTc” value (healthy male subjects; based on AUC0-8 h, at steady state, p<0.001) was −1.9%. The “QT interval, change from baseline (resting electrocardiogram)” value (healthy male subjects; repeated daily dosing) was 4%, the “QTc interval, change from baseline (resting electrocardiogram)” value (healthy male subjects; repeated daily dosing) was −2% and the “T-wave amplitude, change from baseline (resting electrocardiogram)” value (healthy male subjects; repeated daily dosing) was 28%. For the same compound, the “PQ interval, change from baseline (resting electrocardiogram)” value (healthy male subjects; repeated once daily dosing) was 4%, the “Resting electrocardiogram heart rate, change compared to baseline” value (healthy male subjects; repeated once daily dosing) was −9% and the “Resting diastolic blood pressure, change” value (healthy male subjects; repeated oral administration) was −10%. The “Resting heart rate, change” value (healthy male subjects; repeated oral administration) was −8%, the “Resting systolic blood pressure, change” value (healthy male subjects; repeated oral administration) was −5% and the “diastolic blood pressure during sub-maximal exercise, change from baseline” value (healthy male subjects; repeated oral administration) was −2%. For the same compound, the “heart rate during sub-maximal exercise, change from baseline” value (healthy male subjects; repeated oral administration) was −16%, the “systolic blood pressure during sub-maximal exercise, change from baseline” value (healthy male subjects; repeated oral administration) was −12% and the “Resting diastolic blood pressure, change” value (healthy male subjects; single dose) was −4%. The “Resting heart rate, change” value (healthy male subjects; single dose) was −10%, the “Resting systolic blood pressure, change” value (healthy male subjects; single dose) was −3% and the “diastolic blood pressure during sub-maximal exercise, change from baseline” value (healthy male subjects; single dose) was 2%. For the same compound, the “heart rate during sub-maximal exercise, change from baseline” value (healthy male subjects; single dose) was −17% and the “systolic blood pressure during sub-maximal exercise, change from baseline” value (healthy male subjects; single dose) was −13%.
